# US20120165310A1, “ETHER DERIVATIVES OF BICYCLIC HETEROARYLS” (NOVARTIS AG, priority 2009, published 2012)
# pIC50: −log10 of the molar value.
# Target: T1, IGF-1R (Homo sapiens, UniProt P08069)
# T1 construct: expressed in transfected cells; host or cells: Hek293 (Hek293-IGF1R)
# Experiment: Cellular IGF-1R assay: capture ELISA (MSD) of receptor phosphorylation in Hek293 cells
# Format: cell-based
# Settings: Hek293-IGF1R cells, 1 h pre-incubation, 10 min IGF stimulation, pIGF1R capture ELISA
# Summary of the method: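 IC50 from 4-parameter fit of IGF1R phosphorylation, normalised to IGF-stimulated and unstimulated controls, measured by MSD capture ELISA on lysates. Hek293-IGF1R cells in starvation medium got compound 1 h (top 10 μM, 3-fold steps, 0.1% DMSO) before a 10 min pulse of 1.0 ng/μL IGF.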
# T1 sequence (P08069 31-1367): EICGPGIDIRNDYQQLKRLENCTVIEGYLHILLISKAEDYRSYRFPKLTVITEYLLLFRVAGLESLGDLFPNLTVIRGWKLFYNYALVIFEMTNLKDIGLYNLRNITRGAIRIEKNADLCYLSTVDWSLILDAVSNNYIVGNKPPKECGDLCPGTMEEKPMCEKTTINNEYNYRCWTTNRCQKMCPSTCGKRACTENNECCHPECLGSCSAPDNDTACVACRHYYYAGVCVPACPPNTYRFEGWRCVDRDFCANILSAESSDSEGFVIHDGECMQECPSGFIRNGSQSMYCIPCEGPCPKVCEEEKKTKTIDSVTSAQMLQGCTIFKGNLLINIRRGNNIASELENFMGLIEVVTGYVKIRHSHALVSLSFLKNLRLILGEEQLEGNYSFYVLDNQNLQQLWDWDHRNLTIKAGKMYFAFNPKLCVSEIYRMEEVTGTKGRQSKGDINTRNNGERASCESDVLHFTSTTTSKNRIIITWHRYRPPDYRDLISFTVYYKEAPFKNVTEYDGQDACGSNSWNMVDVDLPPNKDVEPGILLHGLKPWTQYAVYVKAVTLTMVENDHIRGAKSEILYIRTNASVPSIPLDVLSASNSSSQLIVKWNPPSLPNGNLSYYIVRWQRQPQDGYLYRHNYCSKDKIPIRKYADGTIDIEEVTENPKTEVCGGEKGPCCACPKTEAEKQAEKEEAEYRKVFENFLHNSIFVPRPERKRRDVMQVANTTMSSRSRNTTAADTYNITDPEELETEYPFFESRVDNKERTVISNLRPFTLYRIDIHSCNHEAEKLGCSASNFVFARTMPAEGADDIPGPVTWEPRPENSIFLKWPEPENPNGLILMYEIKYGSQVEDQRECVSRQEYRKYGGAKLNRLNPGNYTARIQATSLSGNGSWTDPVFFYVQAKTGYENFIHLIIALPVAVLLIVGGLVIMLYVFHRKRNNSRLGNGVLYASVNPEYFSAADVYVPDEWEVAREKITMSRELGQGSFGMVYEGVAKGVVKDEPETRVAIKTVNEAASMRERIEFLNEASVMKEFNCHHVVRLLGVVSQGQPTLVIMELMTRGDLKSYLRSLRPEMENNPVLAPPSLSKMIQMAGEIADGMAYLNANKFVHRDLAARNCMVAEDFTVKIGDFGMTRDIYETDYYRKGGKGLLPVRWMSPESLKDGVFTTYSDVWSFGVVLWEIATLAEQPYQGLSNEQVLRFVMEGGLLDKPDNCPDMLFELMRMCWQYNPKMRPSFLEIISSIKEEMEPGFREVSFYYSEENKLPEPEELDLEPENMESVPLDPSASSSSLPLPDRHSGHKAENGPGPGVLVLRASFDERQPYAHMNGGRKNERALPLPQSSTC
row,SMILES,pIC50
1,"NC(=O)[C@@H]1[C@H]2CC[C@H](C2)N1CC1CC(n2cc(-c3cccc(OCC45CCC(CC4)O5)c3)c3c(N)ncnc32)C1 (stereo partly drawn) [Example 104, (1R,3S,4S)-2-(((1S,3R)-3-(5-(3-(7-oxabicyclo[2.2.1]heptan-1-ylmethoxy)phenyl)-4-amino-7H-pyrrolo[2,3-d]pyrimidin-7-yl)cyclobutyl)methyl)-2-azabicyclo[2.2.1]heptane-3-carboxamide]",8.22
2,"CC1(C)CN(C[C@H]2C[C@@H](n3cc(-c4cccc(OCC5CCCCO5)c4)c4c(N)ncnc43)C2)CCS1(=O)=O (stereo partly drawn) [Example 105, 7-[cis-3-(2,2-Dimethyl-1,1-dioxo-1λ6-thiomorpholin-4-ylmethyl)-cyclobutyl]-5-[3-(tetrahydro-pyran-2-ylmethoxy)-phenyl]-7H-pyrrolo[2,3-d]pyrimidin-4-ylamine]",6.39
3,"Nc1ncnc2c1c(-c1cccc(OCC34CCC(CC3)O4)c1)cn2[C@H]1C[C@@H](CN2CCSCC2=O)C1 [Example 106, 4-(((1S,3S)-3-(5-(3-(7-oxabicyclo[2.2.1]heptan-1-ylmethoxy)phenyl)-4-amino-7H-pyrrolo[2,3-d]pyrimidin-7-yl}-cyclobutyl)methyl)thiomorpholin-3-one]",7.21
4,CC1(OC(=O)NC[C@H]2C[C@@H](n3cc(-c4cccc(OCC56CCC(CC5)O6)c4)c4c(N)ncnc43)C2)CC1 [Example 107],7.68
5,"Nc1ncnc2c1c(-c1cccc(OCC34CCC(CC3)O4)c1)cn2[C@H]1C[C@@H](CN2C(=O)c3ccccc3C2=O)C1 [Example 108, 2-(((1S,3S)-3-(5-(3-(7-oxabicyclo[2.2.1]heptan-1-ylmethoxy)phenyl)-4-amino-7H-pyrrolo[2,3-d]pyrimidin-7-yl)cyclobutyl)methyl)isoindoline-1,3-dione]",6.49
6,"CN1CCN([C@H]2CC[C@@H](n3cc(-c4cccc(OCC56CCC(CC5)O6)c4)c4c(N)ncnc43)CC2)CC1 [Example 109, 5-(3-(7-oxabicyclo[2.2.1]heptan-1-ylmethoxy)phenyl)-7-((1S,4S)-4-(4-methylpiperazin-1-yl)cyclohexyl)-7H-pyrrolo[2,3-d]pyrimidin-4-amine]",7.00
7,"Nc1ncnc2c1c(-c1cccc(OCC34CCC(CC3)O4)c1)cn2[C@H]1CC[C@@H](CO)CC1 [Example 110, ((1S,4S)-4-(5-(3-(7-oxabicyclo[2.2.1]heptan-1-ylmethoxy)phenyl)-4-amino-7H-pyrrolo[2,3-d]pyrimidin-7-yl)-cyclohexyl)methanol]",6.23
8,"Nc1ncnc2c1c(-c1cccc(OCC34CCC(CC3)O4)c1)cn2C1CCC(CN2CCS(=O)(=O)CC2)CC1 (centres unmarked) [Example 111, 7-[4-(1,1-Dioxo-thiomorpholin-4-ylmethyl)-cyclohexyl]-5-[3-(7-oxa-bicyclo[2.2.1]hept-1-ylmethoxy)-phenyl]-7H-pyrrolo[2,3-d]pyrimidin-4-ylamine]",7.01
9,"Nc1ncnc2c1c(-c1cccc(OCC34CCC(CC3)O4)c1)cn2[C@H]1CC[C@@H](CN2CCSCC2)CC1 [Example 112, 5-(3-(7-oxabicyclo[2.2.1]heptan-1-ylmethoxy)phenyl)-7-((1S,4S)-4-(thiomorpholinomethyl)cyclohexyl)-7H-pyrrolo[2,3-d]pyrimidin-4-amine]",7.44
10,"CN1CCN(C[C@H]2CC[C@@H](n3cc(-c4cccc(OCC56CCC(CC5)O6)c4)c4c(N)ncnc43)CC2)CC1 [Example 113, 5-(3-(7-oxabicyclo[2.2.1]heptan-1-ylmethoxy)phenyl)-7-((1S,4S)-4-((4-methylpiperazin-1-yl)methyl)cyclohexyl)-7H-pyrrolo[2,3-d]pyrimidin-4-amine]",6.75
11,"CS(=O)(=O)CCN1CCC(n2cc(-c3cccc(OCC45CCC(CC4)O5)c3)c3c(N)ncnc32)CC1 [Example 114, 5-(3-(7-oxabicyclo[2.2.1]heptan-1-ylmethoxy)phenyl)-7-(1-(2-(methylsulfonyl)ethyl)piperidin-4-yl)-7H-pyrrolo[2,3-d]pyrimidin-4-amine]",6.52
12,"Nc1ncnc2c1c(-c1cccc(OCC34CCC(CC3)O4)c1)cn2[C@H]1CC[C@@H](CN2CC[S+]([O-])CC2)CC1 [Example 115, 5-[3-(7-Oxa-bicyclo[2.2.1]hept-1-ylmethoxy)-phenyl]-7-cis-[4-(1-oxo-1λ4-thiomorpholin-4-ylmethyl)-cyclohexyl]-7H-pyrrolo[2,3-d]pyrimidin-4-ylamine]",6.54
13,"Nc1ncnc2c1c(-c1cccc(OCC34CCC(CC3)O4)c1)cn2[C@H]1CC[C@@H](N2CCC(F)(F)CC2)CC1 [Example 116, 5-(3-(7-oxabicyclo[2.2.1]heptan-1-ylmethoxy)phenyl)-7-((1S,4S)-4-(4,4-difluoropiperidin-1-yl)cyclohexyl)-7H-pyrrolo[2,3-d]pyrimidin-4-amine]",6.65
14,"Nc1ncnc2c1c(-c1cccc(OCC34CCC(CC3)O4)c1)cn2C1CCC(O)(CNC2CC2)CC1 [Example 117, (1R,4R)-4-(5-(3-(7-oxabicyclo[2.2.1]heptan-1-ylmethoxy)phenyl)-4-amino-7H-pyrrolo[2,3-d]pyrimidin-7-yl)-1-((cyclopropylamino)methyl)cyclohexanol]",6.80
15,"Nc1ncnc2c1c(-c1cccc(OCC34CCC(CC3)O4)c1)cn2C1CCN(C2COC2)CC1 [Example 118, 5-(3-(7-oxabicyclo[2.2.1]heptan-1-ylmethoxy)phenyl)-7-(1-(oxetan-3-yl)piperidin-4-yl)-7H-pyrrolo[2,3-d]pyrimidin-4-amine]",6.40
16,"CN1CCN([C@H]2CC[C@@H](n3cc(-c4cccc(OC[C@@H]5CCC(C)(C)O5)c4)c4c(N)ncnc43)CC2)CC1 [Example 119, 5-(3-(((S)-5,5-dimethyltetrahydrofuran-2-yl)methoxy)phenyl)-7-((1S,4S)-4-(4-methylpiperazin-1-yl)cyclohexyl)-7H-pyrrolo[2,3-d]pyrimidin-4-amine]",7.44
17,"Nc1ncnc2c1c(-c1cccc(OCC3CCCCO3)c1)cn2C1CC(CN2CCCC2C(O)C(F)(F)F)C1 [Example 120, (1S)-1-((2S)-1-(((1S,3R)-3-(4-amino-5-(3-((tetrahydro-2H-pyran-2-yl)methoxy)phenyl)-7H-pyrrolo[2,3-d]pyrimidin-7-yl)cyclobutyl)methyl)pyrrolidin-2-yl)-2,2,2-trifluoroethanol]",6.71
18,"CN1CCN([C@H]2CC[C@@H](n3cc(-c4cccc(OC[C@H]5CCC(C)(C)O5)c4)c4c(N)ncnc43)CC2)CC1 [Example 121, 5-(3-(((R)-5,5-dimethyltetrahydrofuran-2-yl)methoxy)phenyl)-7-((1S,4S)-4-(4-methylpiperazin-1-yl)cyclohexyl)-7H-pyrrolo[2,3-d]pyrimidin-4-amine]",6.83
19,C[C@]1(O)C[C@@H](c2nc(-c3cccc(OCC45CCC(CC4)O5)c3)c3c(N)nccn32)C1 [Example 122],6.31
20,"CN1CCN(C[C@]2(O)C[C@@H](n3cc(-c4cccc(OCC56CCC(CC5)O6)c4)c4c(N)ncnc43)C2)CC1 [Example 123, (Z)-3-{4-Amino-5-[3-(7-oxa-bicyclo[2.2.1]hept-1-ylmethoxy)-phenyl]-pyrrolo[2,3-d]pyrimidin-7-yl}-1-(4-methyl-piperazin-1-ylmethyl)-cyclobutanol]",7.16
21,Nc1ncnc2c1c(-c1cccc(OCC34CCC(CC3)O4)c1)cn2[C@H]1CC[C@@H](CN2CC[C@@H](O)C2)CC1 [Example 124],7.60
22,"Nc1ncnc2c1c(-c1cccc(OCC34CCC(CC3)O4)c1)cn2[C@H]1CC[C@H](N2CC[C@@H](F)C2)CC1 [Example 125, 5-(3-(7-oxabicyclo[2.2.1]heptan-1-ylmethoxy)phenyl)-7-((1R,4S)-4-((R)-3-fluoropyrrolidin-1-yl)cyclohexyl)-7H-pyrrolo[2,3-d]pyrimidin-4-amine]",6.38
23,"Nc1ncnc2c1c(-c1cccc(OCC34CCC(CC3)O4)c1)cn2C1CCC(CN2CCC(O)C2)CC1 [Example 126, (S)-1-(((1S,4S)-4-(5-(3-(7-oxabicyclo[2.2.1]heptan-1-ylmethoxy)phenyl)-4-amino-7H-pyrrolo[2,3-d]pyrimidin-7-yl)cyclohexyl)methyl)pyrrolidin-3-ol]",7.30
24,"Nc1ncnc2c1c(-c1cccc(OCC34CCC(CC3)O4)c1)cn2C1CCC(N2CCC(O)C2)CC1 [Example 127, (S)-1-((1S,4S)-4-(5-(3-(7-oxabicyclo[2.2.1]heptan-1-ylmethoxy)phenyl)-4-amino-7H-pyrrolo[2,3-d]pyrimidin-7-yl)cyclohexyl)pyrrolidin-3-ol]",6.43
25,"Nc1ncnc2c1c(-c1cccc(OCC34CCC(CC3)O4)c1)cn2[C@H]1CC[C@@H](N2CC[C@@H](O)C2)CC1 [Example 128, (R)-1-((1S,4S)-4-(5-(3-(7-oxabicyclo[2.2.1]heptan-1-ylmethoxy)phenyl)-4-amino-7H-pyrrolo[2,3-d]pyrimidin-7-yl)cyclohexyl)pyrrolidin-3-ol]",6.82
26,"Nc1ncnc2c1c(-c1cccc(OCC34CCC(CC3)O4)c1)cn2[C@H]1CC[C@@H](CN2CCNC(=O)C2)CC1 [Example 129, 4-(((1S,4S)-4-(5-(3-(7-oxabicyclo[2.2.1]heptan-1-ylmethoxy)phenyl)-4-amino-7H-pyrrolo[2,3-d]pyrimidin-7-yl)cyclohexyl)methyl)piperazin-2-one]",6.49
27,Nc1ncnc2c1c(-c1cccc(OCC34CCC(CC3)O4)c1)cn2[C@H]1CC[C@@H](CN2CCOCC2)CC1 [Example 130],7.35
28,"Nc1ncnc2c1c(-c1cccc(OCC34CCC(CC3)O4)c1)cn2C1CCC(N2CCS(=O)(=O)CC2)CC1 (centres unmarked) [Example 131, 7-[4-(1,1-Dioxo-1λ6-thiomorpholin-4-yl)-cyclohexyl]-5-[3-(7-oxa-bicyclo[2.2.1]hept-1-ylmethoxy)-phenyl]-7H-pyrrolo[2,3-d]pyrimidin-4-ylamine]",6.97
29,"Nc1ncnc2c1c(-c1cccc(OCC34CCC(CC3)O4)c1)cn2C1CCC(N2CC[C@H](F)C2)CC1 (stereo partly drawn) [Example 132, 5-(3-(7-oxabicyclo[2.2.1]heptan-1-ylmethoxy)phenyl)-7-((1R,4R)-4-((S)-3-fluoropyrrolidin-1-yl)cyclohexyl)-7H-pyrrolo[2,3-d]pyrimidin-4-amine]",6.94
